The values below are quoted from earlier work in US11766390B2, “Method for dyeing keratinous material, comprising the use of an organosilicon compound, a colored effect pigment and a film-forming polymer II” (Henkel AG & Co. KGaA, priority 2019, dated 2023).

The conditions of this data set: for solubility in water: 25° C.

With `CCN(Cc1cccc(S(=O)(=O)[O-])c1)c1ccc(C(=C2C=CC(=[N+](CC)Cc3cccc(S(=O)(=O)[O-])c3)C=C2)c2ccccc2S(=O)(=O)[O-])cc1.[Na+].[Na+]` [Acid Blue 9], the solubility in water result was “more than 20 % by weight”.

As for `O=S(=O)([O-])c1ccc(N=Nc2c(O)ccc3ccccc23)cc1.[Na+]` [Acid Orange 7, sodium salt of 4-[(2-hydroxy-1-naphthyl)azo]benzene sulphonate], the solubility in water result is reported as “more than 7 g/L”.

On to `Nc1cc(S(=O)(=O)[O-])cc2cc(S(=O)(=O)[O-])c(N=Nc3ccccc3)c(O)c12.[Na+].[Na+]` [Acid Red 33, disodium salt of 5-amino-4-hydroxy-3-(phenylazo)-naphthalene-2,7-disulphonate], for which the solubility in water is 2500 µg/mL.

On to `O=C([O-])c1c(Cl)c(Cl)c(Cl)c(Cl)c1-c1c2c(Br)cc(=O)c(Br)c-2oc2c(Br)c(O)cc(Br)c12.O=C([O-])c1c(Cl)c(Cl)c(Cl)c(Cl)c1-c1c2c(Br)cc(=O)c(Br)c-2oc2c(Br)c(O)cc(Br)c12.[Na+].[Na+]` [Acid Red 92, disodium salt of 3,4,5,6-tetrachloro-2-(1,4,5,8-tetrabromo-6-hydroxy-3-oxoxanthen-9-yl)benzoic acid], for which the solubility in water entry was “greater than 10 g/L”.

With `O=C([O-])C1=NN(c2ccc(S(=O)(=O)[O-])cc2)C(=O)C1N=Nc1ccc(S(=O)(=O)[O-])cc1.[Na+].[Na+].[Na+]` (centres unmarked) [Acid Yellow 23, trisodium salt of 4,5-dihydro-5-oxo-1-(4-sulfophenyl)-4-((4-sulfophenyl)azo)-1H-pyrazole-3-carboxylic acid], the “solubility in water (in words)” value (at 25° C.) is “highly soluble”.
